The nature of data set [1]: Chronic and subacute toxicity studies (background). The note with it: in vivo.
A short description of data set [2]: Addiction liabilities and tolerance (background). In kind it is in vivo. The note with it: compared to morphine.
The test system of the next data set is rats. Put plainly: 30 days toxicity study by subcutaneous route in rat. In kind it is in vivo. As to conditions: s.c. once daily 30 days, 7.5, 15.0 and 30.0 mg/kg. On the procedure:
(§1) 30 days toxicity study or L-Tyrosyl-D-alanyl-glycyl-N-methylphenylalanyl-glycyl-isopropylamide in rat and rhesus monkey by subcutaneous route.
(§2) Compound L-Tyrosyl-D-alanyl-glycyl-N-methylphenytalanyt-glycyl-isopropylamide dissolved in saline was given daily by subcutaneous route to groups of rats (n=10 males and 10 females in each group) and rhesus monkeys ([…] and 2 females in each group) once daily for 30 consecutive days. The dose levels used in rats were 0.0, 7.5, 15.0 and 30.0 mg/kg and in monkeys 0.0, 3.75, 7.5 and 15 mg/kg. Dose levels were selected on the basis of rat ED of 3.0 mg/kg and extrapolation thereof in the monkey.
(§3) A careful general inspection of the animals was done at least once each day Cage-side observations included changes in skin and fur, eyes and mucous membranes, general activity and behavior and also general signs of abnormal functioning of respiratory, circulators, autonomic and central nervous system and somatomotor activity. Body weights (weekly in rats initial and day 30 in monkeys), daily food (rat and monkeys) and water (rat only) consumption and parameters of hematology urinalysis and blood biochemistry of the animals was recorded All the animals were sacrificed at the end of 30 days. Necropsy was performed and histophathological examination of all the important organs and tissues were done. […]

Another data set in a line: LD50 in mice. The note with it: mouse, in vivo, ip. The method, then:
It is evident from above table that the ED50 of beta CD complex is about one third than the compound L-Tyrosyl-D-alanyl-glycyl-N-methylphenylalanyl-glycyl-isopropylamide by subcutaneous route and was one half by oral route. The LD50 of the compound L-Tyrosyl-D-alanyl-glycyl-N-methylphenylalanyl-glycyl-isopropylamide is 1000 mg/Kg i.p., and that of the complex is >10,000 mg/kg P. O. in mice.

The next data set has as its system rhesus monkeys. Put plainly: 30 days toxicity study by subcutaneous route in rhesus monkey. The note with it: s.c. once daily 30 days, 3.75, 7.5 and 15 mg/kg. In kind it is in vivo. On the procedure: as §1, §2, §3
A short description of data set [3]: CNS and cardiovascular effects (background). As to conditions: in vivo.
The subject of the next data set is leucine amino peptidase. As to conditions: enzyme hydrolysis with leucine amino peptidase; cited from earlier work.
The conditions of data set [4]: cited from earlier work; for analgesic potency compared with morphine: systemic administration; for analgesic effect: systemic route of administration.
The next data set has as its system μ and δ receptors. As to conditions: cited from earlier work.

Non-standard residues stand in square brackets, D forms with d. No end group written: not given here. Phe(4-NO2) = N[C@@H](Cc1ccc([N+](=O)[O-])cc1)C(=O)O

Broadly, the LD50 is the dose at which mortality reaches 50%. For `CC(C)NC(=O)CNC(=O)[C@H](Cc1ccccc1)N(C)C(=O)CNC(=O)[C@@H](C)NC(=O)[C@@H](N)Cc1ccc(O)cc1` [L-Tyrosyl-D-alanyl-glycyl-N-methylphenylalanyl-glycyl-isopropylamide], the “chronic and subacute toxicity finding” value in data set [1] is “safe and did not produce any noticeable toxic side effects”. The “tolerance and addiction properties” value in [2] was “significantly reduced tolerance and addiction properties as compared to morphine”. For the same molecule, the 30-day toxicity finding entry in the data set on rats was “safe”. For the same molecule, the LD50 in the data set “LD50 in mice” came to 1000 mg/kg. The 30-day toxicity finding entry in the data set on rhesus monkeys was “safe”. For the same molecule, in [3], the “CNS effects like sedation and respiratory depression” value was “virtually devoid of any major CNS effects”; the cardiovascular effects entry is reported as “virtually devoid of any significant cardiovascular effects”.

Consider Leu-enkephalin, for which the half life in the data set with leucine amino peptidase is given as 45 min.

For “Tyr-Arg-Gly-Phe(pNO2)-Pro-NH2 (YRG[Phe(4-NO2)]P-NH2; N-terminus assumed; SMILES N=C(N)NCCC[C@H](NC(=O)[C@@H](N)Cc1ccc(O)cc1)C(=O)NCC(=O)N[C@@H](Cc1ccc([N+](=O)[O-])cc1)C(=O)N1CCC[C@H]1C(N)=O) [BW-443C, enkephalin analog]”, in [4], the “analgesic potency compared with morphine” value is “more potent analgesic than morphine”.

As to Tyr-D-Ala-Gly,-Met(o)-01 [FK-33-824], in the data set on μ and δ receptors, the opioid receptor selectivity entry is given as “only slight preference for p-receptors”. Besides, the analgesic effect entry in [4] was “strong analgesic effect”.

As to “Tyr-D-Ala-Gly-Phe-MeMet-NH2 [met-kephamid]”, the opioid receptor selectivity result in the data set on μ and δ receptors was “essentially non-elective for μ and δ receptors”. Further, the analgesic effect result in data set [4] is reported as “strong analgesic effect”.

With Y[dM]GFP-NH2, the “analgesic potency compared with morphine” value in data set [4] is “more potent analgesic than morphine”.
